Where a name gives a salt, the structure may show the parent alone.
Test system: HCT116
Conditions: 72 h
Procedure, shortened: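 Four-parameter Hill fits gave IC50 and maximal efficacy. The data were CellTiter-Glo luminescence readings in HCT116 cells, normalized so that vehicle was 0% and positive control was -100%, with pattern correction afterwards.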

Compound | IC50 cell viability (ICRF193 0 nM) [µM] | IC50 cell viability (ICRF193 200 nM) [µM]
Cc1[nH]cnc1C[C@H]1CCc2c(C)c3ccccc3n2C1=O [Fabesetron] | > 45.8 | > 45.8
CC(=O)OCC(CCn1cnc2cnc(N)nc21)COC(C)=O [Famciclovir] | > 45.8 | > 45.8
NC(N)=Nc1nc(CSCC/C(N)=N/S(N)(=O)=O)cs1 [Famotidine] | > 45.8 | > 45.8
COP(=S)(OC)Oc1ccc(S(=O)(=O)N(C)C)cc1 [Famphur] | > 45.8 | > 45.8
O=C1CC[C@H](C(=O)N2CCCCC2)N1 [Fasoracetam] | > 45.8 | > 45.8
O=S(=O)(c1cccc2cnccc12)N1CCCNCC1 [Fasudil] | > 45.8 | > 45.8
NC(=O)c1nc(F)cnc1O [Favipiravir] | > 45.8 | > 45.8
COCC(=O)Nc1cc(Sc2ccccc2)ccc1N=C(NC(=O)OC)NC(=O)OC [Febantel] | > 45.8 | > 45.8
Cc1nc(-c2ccc(OCC(C)C)c(C#N)c2)sc1C(=O)O [Febuxostat] | > 45.8 | > 45.8
NC(=O)OCC(COC(N)=O)c1ccccc1 [Felbamate] | > 45.8 | > 45.8
NCCCC[C@H](NC(=O)[C@@H]1CCCN1C(=O)[C@@H]1CSSC[C@H](N)C(=O)N[C@@H](Cc2ccccc2)C(=O)N[C@@H](Cc2ccccc2)C(=O)N[C@@H](CCC(N)=O)C(=O)N[C@@H](CC(N)=O)C(=O)N1)C(=O)NCC(N)=O [Felypressin] | > 45.8 | > 45.8
COC(=O)Nc1nc2cc(Sc3ccccc3)ccc2[nH]1 [Fenbendazole] | > 45.8 | > 45.8
O=C(O)CCC(=O)c1ccc(-c2ccccc2)cc1 [Fenbufen] | > 45.8 | > 45.8
CCC(C(=O)OCCN1CCOC(c2ccccc2)C1C)c1ccccc1 (stereo not drawn) [Fenbutrazate] | > 45.8 | > 45.8
COP(=S)(OC)Oc1cc(Cl)c(Cl)cc1Cl [Fenchlorphos] | > 45.8 | > 45.8
CCCCC(O)c1ccccc1 (stereo not drawn) [Fenipentol] | > 45.8 | > 45.8
CC(C)OC(=O)C(C)(C)Oc1ccc(C(=O)c2ccc(Cl)cc2)cc1 [Fenofibrate] | > 45.8 | > 45.8
Oc1ccc(C2CNCCc3c2cc(O)c(O)c3Cl)cc1 (stereo not drawn) [Fenoldopam] | > 45.8 | > 45.8
CC(C(=O)O)c1cccc(Oc2ccccc2)c1 (stereo not drawn) [Fenoprofen calcium salt dihydrate] | > 45.8 | > 45.8
CC(Cc1ccc(O)cc1)NCC(O)c1cc(O)cc(O)c1 (stereo not drawn) [Fenoterol hydrobromide] | > 45.8 | > 45.8

Compound | IC50 cell viability (ICRF193 0 nM) [µM] | IC50 cell viability (ICRF193 200 nM) [µM]
COP(=S)(OC)Oc1ccc(SC)c(C)c1 [Fenthion] | > 45.8 | > 45.8
O=C(O)Cc1sc(-c2ccccc2)nc1-c1ccc(Cl)cc1 [Fentiazac] | > 45.8 | > 45.8
CC(C)=CCC1C(=O)N(c2ccccc2)N(c2ccccc2)C1=O [Feprazone] | > 45.8 | > 45.8
CC(C)(C(=O)O)c1ccc(C(O)CCCN2CCC(C(O)(c3ccccc3)c3ccccc3)CC2)cc1 (stereo not drawn) [Fexofenadine hydrochloride] | > 45.8 | > 45.8
Cc1ccc(/C=N/n2c(-c3ccccc3)csc2=S)cc1 [Fezatione] | > 45.8 | > 45.8
NC(=O)[C@@H]1C[C@]2(NC(=O)NC2=O)c2cc(F)ccc2O1 [Fidarestat] | > 45.8 | > 45.8
CC(C)(C)NC(=O)[C@H]1CC[C@H]2[C@@H]3CC[C@H]4NC(=O)C=C[C@]4(C)[C@H]3CC[C@]12C [Finasteride] | > 45.8 | > 45.8
N#Cc1nn(-c2c(Cl)cc(C(F)(F)F)cc2Cl)c(N)c1[S+]([O-])C(F)(F)F (stereo not drawn) [Fipronil] | > 45.8 | > 45.8
Cc1cc2nc3c(=O)[nH]c(=O)nc-3n(C[C@H](O)[C@H](O)[C@H](O)COP(=O)(O)OP(=O)(O)OC[C@H]3O[C@@H](n4cnc5c(N)ncnc54)[C@H](O)[C@@H]3O)c2cc1C [Flavin adenine dinucleotide disodium salt hydrate] | > 45.8 | > 45.8
Cc1c(-c2ccccc2)oc2c(C(=O)OCCN3CCCCC3)cccc2c1=O [Flavoxate hydrochloride] | > 45.8 | > 45.8
O=C(NCC1CCCCN1)c1cc(OCC(F)(F)F)ccc1OCC(F)(F)F (stereo not drawn) [Flecainide] | > 45.8 | > 45.8
CN1CCN(c2c(F)cc3c(=O)c(C(=O)O)cn(CCF)c3c2F)CC1 [Fleroxacin] | > 45.8 | > 45.8
O=C(OCC(O)CO)c1ccccc1Nc1ccnc2c(C(F)(F)F)cccc12 (stereo not drawn) [Floctafenine] | > 45.8 | > 45.8
CO[C@@]1(NC(=O)CSC(F)F)C(=O)N2C(C(=O)O)=C(CSc3nnnn3CCO)CO[C@@H]21 [Flomoxef] | > 45.8 | > 45.8
CCC(=O)c1c(O)cc(O)cc1O [Flopropione] | > 45.8 | > 45.8
CS(=O)(=O)c1ccc([C@@H](O)[C@@H](CF)NC(=O)C(Cl)Cl)cc1 [Florfenicol] | > 45.8 | > 45.8
Cc1onc(-c2c(F)cccc2Cl)c1C(=O)N[C@@H]1C(=O)N2[C@@H]1SC(C)(C)[C@@H]2C(=O)O [Flucloxacillin sodium] | > 45.8 | > 45.8
OC(Cn1cncn1)(Cn1cncn1)c1ccc(F)cc1F [Fluconazole] | > 45.8 | > 45.8
Nc1nc(=O)[nH]cc1F [Flucytosine] | > 45.8 | > 45.8
Nc1nc(F)nc2c1ncn2[C@@H]1O[C@H](COP(=O)(O)O)[C@@H](O)[C@@H]1O [Fludarabine phosphate] | > 45.8 | > 45.8

Compound | IC50 cell viability (ICRF193 0 nM) [µM] | IC50 cell viability (ICRF193 200 nM) [µM]
C[C@]12CCC(=O)C=C1CC[C@H]1[C@@H]3CC[C@](O)(C(=O)CO)[C@@]3(C)C[C@H](O)[C@@]12F [Fludrocortisone] | > 45.8 | > 45.8
O=C(O)c1ccccc1Nc1cccc(C(F)(F)F)c1 [Flufenamic acid] | > 45.8 | > 45.8
CCOC(=O)c1ncn2c1CN(C)C(=O)c1cc(F)ccc1-2 [Flumazenil] | > 45.8 | > 45.8
CC(=O)OCC(=O)[C@@]1(O)[C@H](C)C[C@H]2[C@@H]3C[C@H](F)C4=CC(=O)C=C[C@]4(C)[C@@]3(F)[C@@H](O)C[C@@]21C [Flumethasone acetate] | > 45.8 | > 45.8
C[C@@H]1C[C@H]2[C@@H]3C[C@H](F)C4=CC(=O)C=C[C@]4(C)[C@@]3(F)[C@@H](O)C[C@]2(C)[C@@]1(O)C(=O)COC(=O)C(C)(C)C [Flumethasone pivalate] | > 45.8 | > 45.8
C[C@@H]1C[C@H]2[C@@H]3C[C@H](F)C4=CC(=O)C=C[C@]4(C)[C@@]3(F)[C@@H](O)C[C@]2(C)[C@@]1(O)C(=O)CO [Flumethasone] | > 45.8 | > 45.8
CC1(C)O[C@@H]2C[C@H]3[C@@H]4C[C@H](F)C5=CC(=O)C=C[C@]5(C)[C@H]4[C@@H](O)C[C@]3(C)[C@]2(C(=O)CO)O1 [Flunisolide] | > 45.8 | > 45.8
Cc1c(Nc2ncccc2C(=O)O)cccc1C(F)(F)F [Flunixin meglumine] | > 45.8 | > 45.8
CC1(C)O[C@@H]2C[C@H]3[C@@H]4C[C@H](F)C5=CC(=O)C=C[C@]5(C)[C@@]4(F)[C@@H](O)C[C@]3(C)[C@]2(C(=O)CO)O1 [Fluocinolone acetonide] | > 45.8 | > 45.8
CC(=O)OCC(=O)[C@@]12OC(C)(C)O[C@@H]1C[C@H]1[C@@H]3C[C@H](F)C4=CC(=O)C=C[C@]4(C)[C@@]3(F)[C@@H](O)C[C@@]12C [Fluocinonide] | > 45.8 | > 45.8
O=C(O)c1ccccc1-c1c2ccc(=O)cc-2oc2cc(O)ccc12 [Fluorescein sodium] | > 45.8 | > 45.8
CC(=O)O[C@]1(C(C)=O)CC[C@H]2[C@@H]3C[C@H](C)C4=CC(=O)C=C[C@]4(C)[C@@]3(F)[C@@H](O)C[C@@]21C [Fluorometholone Acetate] | > 45.8 | > 45.8
CC(=O)[C@@]1(O)CC[C@H]2[C@@H]3C[C@H](C)C4=CC(=O)C=C[C@]4(C)[C@@]3(F)[C@@H](O)C[C@@]21C [Fluorometholone] | > 45.8 | > 45.8
C=C1C[C@H]2[C@@H]3CCC4=CC(=O)C=C[C@]4(C)[C@@]3(F)[C@@H](O)C[C@]2(C)[C@@]1(O)C(=O)COC(C)=O [Fluprednidene acetate] | > 45.8 | > 45.8
C[C@]12C=CC(=O)C=C1[C@@H](F)C[C@@H]1[C@@H]2[C@@H](O)C[C@@]2(C)[C@H]1CC[C@]2(O)C(=O)CO [Fluprednisolone] | > 45.8 | > 45.8
CC1(C)O[C@@H]2C[C@H]3[C@@H]4C[C@H](F)C5=CC(=O)CC[C@]5(C)[C@H]4[C@@H](O)C[C@]3(C)[C@]2(C(=O)CO)O1 [Flurandrenolide] | > 45.8 | > 45.8
CC(=O)OC(C)OC(=O)C(C)c1ccc(-c2ccccc2)c(F)c1 (stereo not drawn) [Flurbiprofen axetil] | > 45.8 | > 45.8
CC(C(=O)O)c1ccc(-c2ccccc2)c(F)c1 (stereo not drawn) [Flurbiprofen] | > 45.8 | > 45.8
CC(C)C(=O)Nc1ccc([N+](=O)[O-])c(C(F)(F)F)c1 [Flutamide] | > 45.8 | > 45.8
